pIC50: −log10 of the molar value.
Each compound was assayed against phosphorylated active hERK2 enzyme (Homo sapiens (Human), UniProt P28482). Conditions: read-out: ERK2 IC50; IMAP-FP assay; 0.5 nM hERK2, 30 μM ATP; 10 point titration, 3 μM starting concentration.
phosphorylated active hERK2 enzyme, sequence (P28482 whole entry): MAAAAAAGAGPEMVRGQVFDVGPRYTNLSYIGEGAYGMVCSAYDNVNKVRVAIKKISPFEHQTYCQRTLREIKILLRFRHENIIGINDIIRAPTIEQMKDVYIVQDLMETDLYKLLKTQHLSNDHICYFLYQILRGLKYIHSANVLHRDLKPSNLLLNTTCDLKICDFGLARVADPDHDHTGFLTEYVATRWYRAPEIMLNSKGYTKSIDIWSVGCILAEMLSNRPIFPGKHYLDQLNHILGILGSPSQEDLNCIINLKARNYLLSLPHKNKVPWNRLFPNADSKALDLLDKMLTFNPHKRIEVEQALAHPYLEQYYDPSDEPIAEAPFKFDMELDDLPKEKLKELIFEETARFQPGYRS

In order of falling pIC50:
1. Cc1cc(-n2ncc3cc(NC(=O)N[C@H](COC(C)C)c4ccccc4)ncc32)ccn1 [Example 135, 1-[(1S)-2-(1-methylethoxy)-1-phenylethyl]-3-[1-(2-methylpyridin-4-yl)-1H-pyrazolo[3,4-c]pyridin-5-yl]urea]  9.10
2. Cc1cc(-n2ncc3cc(NC(=O)N[C@@H]4CN(C)C[C@H]4c4ccc(C)s4)ncc32)ccn1 [Example 124, 1-[(3S,4R)-1-methyl-4-(5-methylthiophen-2-yl)pyrrolidin-3-yl]-3-[1-(2-methylpyridin-4-yl)-1H-pyrazolo[3,4-c]pyridin-5-yl)urea]  9.00
3. CCOC[C@@H](NC(=O)Nc1cc2cnn(-c3ccnc(C)c3)c2cn1)c1ccccc1 [Example 129, 1-[(1S)-2-ethoxy-1-phenylethyl]-3-[1-(2-methylpyridin-4-yl)-1H-pyrazolo[3,4-c]pyridin-5-yl)urea]  8.96
4. CNC(=O)[C@@H](NC(=O)Nc1cc2cnn(-c3ccnc(C)c3)c2cn1)c1ccccc1 [Example 142, (2S)-N-methyl-2-({[1-(2-methylpyridin-4-yl)-1H-pyrazolo[3,4-c]pyridin-5-yl]carbamoyl}amino)-2-phenylethanamide]  8.96
5. Cc1cc(-n2ncc3cc(NC(=O)N[C@H]4CN(C)C[C@@H]4CCCc4ccccc4)ncc32)ccn1 [Example 149, 1-[(3R,4S)-1-methyl-4-(3-phenylpropyl)pyrrolidin-3-yl]-3-[1-(2-methylpyridin-4-yl)-1H-pyrazolo[3,4-c]pyridin-5-yl]urea]  8.93
6. CCNC(=O)[C@@H](NC(=O)Nc1cc2cnn(-c3ccnc(C)c3)c2cn1)c1ccccc1 [Example 141, (2S)-N-ethyl-2-({[1-(2-methylpyridin-4-yl)-1H-pyrazolo[3,4-c]pyridin-5-yl]carbamoyl}amino)-2-phenylethanamide]  8.59
7. COCCOC[C@@H](NC(=O)Nc1cc2cnn(-c3ccnc(C)c3)c2cn1)c1ccccc1 [Example 136, 1-[(1S)-2-(2-methoxyethoxy)-1-phenylethyl]-3-[1-(2-methylpyridin-4-yl)-1H-pyrazolo[3,4-c]pyridin-5-yl]urea]  8.36
8. Cc1cc(-n2ncc3cc(NC(=O)NC(C)c4csc(C)n4)ncc32)ccn1 (stereo not shown) [Example 131, 1-[1-(2-methylpyridin-4-yl)-1H-pyrazolo[3,4-c]pyridin-5-yl]-3-[1-(2-methyl-1,3-thiazol-4-yl)ethyl]urea]  7.96
9. Cc1cc(-n2ncc3cc(NC(=O)N[C@@H]4CN(C)C[C@H]4c4nc(C)cs4)ncc32)ccn1 [Example 126, 1-[(3S,4R)-1-methyl-4-(4-methyl-1,3-thiazol-2-yl)pyrrolidin-3-yl]-3-[1-(2-methylpyridin-4-yl)-1H-pyrazolo[3,4-c]pyridin-5-yl)urea]  7.80
10. Cc1cc(-n2ncc3cc(NC(=O)NC(C)c4csc(C)n4)ncc32)ccn1 (stereo not shown) [Example 123, 1-[1-(2-methylpyridin-4-yl)-1H-pyrazolo[3,4-c]pyridin-5-yl]-3-[1-(2-methyl-1,3-thiazol-4-yl)ethyl]urea]  7.61
11. Cc1cc(-n2ncc3cc(NC(=O)N[C@H]4CN(C)C[C@@H]4c4cc(C)on4)ncc32)ccn1 [Example 150, 1-[(3R,4S)-1-methyl-4-(5-methylisoxazol-3-yl)pyrrolidin-3-yl]-3-[1-(2-methylpyridin-4-yl)-1H-pyrazolo[3,4-c]pyridin-5-yl]urea]  7.49
12. Cc1cc(-n2ncc3cc(NC(=O)NC(C)(C)c4ccccc4)ncc32)ccn1 [Example 122, 1-(1-methyl-1-phenylethyl)-3-[1-(2-methylpyridin-4-yl)-1H-pyrazolo[3,4-c]pyridin-5-yl]urea]  7.25
13. CO[C@H]1CCC[C@@H]1NC(=O)Nc1cc2cnn(-c3ccnc(C)c3)c2cn1 [Example 140, 1-[(1S,2S)-2-methoxycyclopentyl]-3-[1-(2-methylpyridin-4-yl)-1H-pyrazolo[3,4-c]pyridin-5-yl)urea]  7.14
14. Cc1cc(-n2ncc3cc(NC(=O)NCc4csc5ccccc45)ncc32)ccn1 [Example 125, 1-(1-benzothiophen-3-ylmethyl)-3-[1-(2-methylpyridin-4-yl)-1H-pyrazolo[3,4-c]pyridin-5-yl)urea]  7.07
15. CCN(CC)C(=O)[C@@H](NC(=O)Nc1cc2cnn(-c3ccnc(C)c3)c2cn1)c1ccccc1 [Example 144, (2S)-N,N-diethyl-2-({[1-(2-methylpyridin-4-yl)-1H-pyrazolo[3,4-c]pyridin-5-yl]carbamoyl}amino)-2-phenylethanamide]  7.05
16. Cc1cc(-n2ncc3cc(NC(=O)N[C@H](CN(C)C)c4ccccc4)ncc32)ccn1 [Example 130, 1-[(1S)-2-(dimethylamino)-1-phenylethyl]-3-[1-(2-methylpyridin-4-yl)-1H-pyrazolo[3,4-c]pyridin-5-yl)urea]  6.91
17. Cc1cc(-n2ncc3cc(NC(=O)N[C@H]4CCCC[C@@H]4N(C)C)ncc32)ccn1 [Example 143, 1-[(1S,2S)-2-(dimethylamino)cyclohexyl]-3-[1-(2-methylpyridin-4-yl)-1H-pyrazolo[3,4-c]pyridin-5-yl)urea]  6.90
18. Cc1cc(-n2ncc3cc(NC(=O)N[C@H](CN4CCOCC4)c4ccccc4)ncc32)ccn1 [Example 127, 1-[1-(2-methylpyridin-4-yl)-1H-pyrazolo[3,4-c]pyridin-5-yl]-3-[(1S)-2-morpholin-4-yl-1-phenylethyl]urea]  6.82
19. CO[C@H]1CNC[C@@H]1NC(=O)Nc1cc2cnn(-c3ccnc(C)c3)c2cn1 [Example 132, 1-[(3S,4S)-4-methoxypyrrolidin-3-yl]-3-[1-(2-methylpyridin-4-yl)-1H-pyrazolo[3,4-c]pyridin-5-yl]urea]  6.77
20. Cc1cc(-n2ncc3cc(NC(=O)N[C@H]4CCCC[C@@H]4N)ncc32)ccn1 [Example 138, 1-[(1S,2S)-2-aminocyclohexyl]-3-[1-(2-methylpyridin-4-yl)-1H-pyrazolo[3,4-c]pyridin-5-yl]urea]  6.40
21. Cc1cc(-n2ncc3cc(NC(=O)NC4CCNC4)ncc32)ccn1 (stereo not shown) [Example 133, 1-[1-(2-methylpyridin-4-yl)-1H-pyrazolo[3,4-c]pyridin-5-yl]-3-pyrrolidin-3-ylurea]  6.34
22. Cc1cc(-n2ncc3cc(NC(=O)N[C@H](Cn4ccnc4)c4ccccc4)ncc32)ccn1 [Example 134, 1-[(1S)-2-(1H-imidazol-1-yl)-1-phenylethyl]-3-[1-(2-methylpyridin-4-yl)-1H-pyrazolo[3,4-c]pyridin-5-yl]urea]  6.32
23. COC(=O)[C@@H](NC(=O)Nc1cc2cnn(-c3ccnc(C)c3)c2cn1)c1ccccc1 [Example 137, methyl (2S)-({[1-(2-methylpyridin-4-yl)-1H-pyrazolo[3,4-c]pyridin-5-yl]carbamoyl}amino)(phenyl) ethanoate]  6.07
24. Cc1cc(-n2ncc3cc(NC(=O)NC(C)c4csc(C)n4)ncc32)ccn1 (stereo not shown) [Example 128, 1-[1-(2-methylpyridin-4-yl)-1H-pyrazolo[3,4-c]pyridin-5-yl]-3-[1-(2-methyl-1,3-thiazol-4-yl)ethyl]urea]  5.69
25. CC(=O)N[C@H]1CCCC[C@@H]1NC(=O)Nc1cc2cnn(-c3ccnc(C)c3)c2cn1 [Example 139, N-[(1S,2S)-2-({[1-(2-methylpyridin-4-yl)-1H-pyrazolo[3,4-c]pyridin-5-yl]carbamoyl}amino)cyclohexyl] acetamide]  5.66

— patent publication US9884048B2, “ERK inhibitors” (Merck Sharp & Dohme Corp., priority 2014, dated 2018)
